From US11976072B2, “Diacylglycerol kinase modulating compounds” (priority 2021, dated 2024)

What was measured:
human DGKα = human DGKα (Homo sapiens, UniProt P23743); test: DGKα Biochemical Activity Assay (ADP-Glo); details: recombinant DGKα 1 nM, 100 μM ATP, 18:1 DAG/POPS/octylglucoside micelles, 1 hour at 25° C.; geometric mean; read-out: HTBS DGKa 1X ATP KM IC50;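 also: luminescent detection of ADP produced as DGKα phosphorylates DAG to phosphatidic acid, IC50 from four-parameter nonlinear curve fit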
Excerpt: Alternatively, the enzymatic activity of human DGKα was monitored in a biochemical assay in the presence or absence of compounds and using micelles containing 18:1 Diacylglycerol (DAG), 16:0-18:1 PS (POPS) and Octylglucoside as substrate. DGKα activity led to conversion of DAG and ATP to Phosphatidic Acid (PA) and ADP. Levels of ADP were monitored by bioluminescence using the ADP-Glo Kinase Assay (Promega) and were indicative of DGKα activity.
Recombinant DGKα (Carna Biosciences) in assay buffer (5 μL in 50 mM MOPS [3-(N-morpholino) propanesulfonic acid], pH 7.2; 0.0025% Triton X-100; 1 mM dithiothreitol; 5 mM MgCl2, 200 μM ATP) was added to the compound-containing plate and was incubated for 15 minutes at 25° C. […] The reaction mixture was incubated at 25° C. for 1 hour. ADP-Glo Reagent (10 μL, 10 mM Mg added) provided by the kit was added to each well and incubated at 25° C. for 40 minutes. Then, 20 μL of Kinase Detection Reagent was added and incubated at 25° C. for 40 minutes. Luciferase activity of each well was measured via luminescence on an Envision plate reader (PerkinElmer).
Least squares curve fittings were performed using a four-parameter variable slope nonlinear regression model. […] IC50 values from multiple experiments were averaged by geometric mean and the standard deviation was calculated.

[1] = tested on: Jurkat NFκB-luciferase cells; test: Jurkat NFκB-Luciferase Assay; type: cell-based; details: Homo sapiens; Jurkat NFκB-luciferase cells activated with anti-CD3 antibody (OKT3), 2.5 hrs at 37° C.; geometric mean; read-out: DGK NFKb Luciferase EC50
In short: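 Luminescence from One-Glo Ex, read 7 min post-addition, reports NFκB activation in Jurkat luciferase reporter cells. Cells, diluted to 1 million cells/ml in 10% FBS RPMI, were dispensed onto plates holding compound and washed, pre-bound antibody.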

Sequence of human DGKα (P23743 whole entry): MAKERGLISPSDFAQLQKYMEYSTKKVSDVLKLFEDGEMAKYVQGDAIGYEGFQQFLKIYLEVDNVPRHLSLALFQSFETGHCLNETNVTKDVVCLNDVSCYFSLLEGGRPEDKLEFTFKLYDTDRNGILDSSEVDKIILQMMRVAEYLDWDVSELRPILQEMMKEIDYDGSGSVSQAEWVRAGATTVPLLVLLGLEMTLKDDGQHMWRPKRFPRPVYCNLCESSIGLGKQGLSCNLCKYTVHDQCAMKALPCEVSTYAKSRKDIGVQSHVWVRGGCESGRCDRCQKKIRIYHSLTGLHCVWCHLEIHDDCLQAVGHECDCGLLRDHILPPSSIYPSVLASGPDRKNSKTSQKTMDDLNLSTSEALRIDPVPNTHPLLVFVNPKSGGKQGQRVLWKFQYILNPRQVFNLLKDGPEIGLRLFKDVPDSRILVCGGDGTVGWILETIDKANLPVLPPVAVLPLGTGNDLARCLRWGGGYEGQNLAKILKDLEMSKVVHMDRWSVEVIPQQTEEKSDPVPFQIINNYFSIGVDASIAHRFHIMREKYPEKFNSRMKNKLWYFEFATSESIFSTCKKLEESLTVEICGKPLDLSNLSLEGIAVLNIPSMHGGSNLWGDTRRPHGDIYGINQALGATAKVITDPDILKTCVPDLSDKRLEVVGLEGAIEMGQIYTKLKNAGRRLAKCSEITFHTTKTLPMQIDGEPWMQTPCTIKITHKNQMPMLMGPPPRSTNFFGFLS

Structure (SMILES)	IC50 (human DGKα) [nM]	EC50 [1] [nM]
Cc1nnc2nc(N3CCCc4c(C#CC(C)(C)n5ccnc5)cccc43)c3c(F)cccc3n12 [Example 78, 5-(5-(3-(1H-imidazol-1-yl)-3-methylbut-1-yn-1-yl)-3,4-dihydroquinolin-1(2H)-yl)-6-fluoro-1-methyl-[1,2,4]triazolo[4,3-a]quinazoline]	41.2	7.73
Cc1nnc2nc(N3CCCc4c(C#CC(C)(C)c5ncco5)cccc43)c3c(F)cccc3n12 [Example 79, 2-(4-(1-(6-fluoro-1-methyl-[1,2,4]triazolo[4,3-a]quinazolin-5-yl)-1,2,3,4-tetrahydroquinolin-5-yl)-2-methylbut-3-yn-2-yl)oxazole]	22.6	2.54
Cc1nnc2nc(N(CC(F)F)c3ccnc(C#CC(C)(C)C(F)(F)F)c3F)c3c(F)c(F)ccc3n12 [Example 80, N-(2,2-difluoroethyl)-6,7-difluoro-N-(3-fluoro-2-(4,4,4-trifluoro-3,3-dimethylbut-1-yn-1-yl)pyridin-4-yl)-1-methyl-[1,2,4]triazolo[4,3-a]quinazolin-5-amine]	15.1	2.15
Cc1nnc2nc(N(CC(F)F)c3ccnc(C#CC4CC4)c3)c3c(F)c(F)ccc3n12 [Example 81, N-(2-(cyclopropylethynyl)pyridin-4-yl)-N-(2,2-difluoroethyl)-6,7-difluoro-1-methyl-[1,2,4]triazolo[4,3-a]quinazolin-5-amine]	10.4	30.7
Cc1nnc2nc(N(CC(F)F)c3ccnc(C#CC4CC4)c3)c3c(F)cccc3n12 [Example 82, N-(2-(cyclopropylethynyl)pyridin-4-yl)-N-(2,2-difluoroethyl)-6-fluoro-1-methyl-[1,2,4]triazolo[4,3-a]quinazolin-5-amine]	11.4	10.5
Cc1nnc2nc(N3CCCc4c(C#CC5(C)CC5)cncc43)c3c(F)c(F)ccc3n12 [Example 83, 6,7-difluoro-1-methyl-5-(5-((1-methylcyclopropyl)ethynyl)-3,4-dihydro-1,7-naphthyridin-1(2H)-yl)-[1,2,4]triazolo[4,3-a]quinazoline]	8.49	1.21
Cc1nnc2nc(N(CC(F)F)c3ccnc(C#CC(C)(C)C(F)(F)F)c3)c3c(F)c(F)ccc3n12 [Example 84, N-(2,2-difluoroethyl)-6,7-difluoro-1-methyl-N-(2-(4,4,4-trifluoro-3,3-dimethylbut-1-yn-1-yl)pyridin-4-yl)-[1,2,4]triazolo[4,3-a]quinazolin-5-amine]	5.06	2.44
Cc1nnc2nc(N3CCCc4c3ccnc4C#CC3(C)CC3)c3c(F)c(F)ccc3n12 [Example 85, 6,7-difluoro-1-methyl-5-(5-((1-methylcyclopropyl)ethynyl)-3,4-dihydro-1,6-naphthyridin-1(2H)-yl)-[1,2,4]triazolo[4,3-a]quinazoline]	7.21	2.24
Cc1nnc2nc(N(CC(F)F)c3ccnc(C#CC4CC4)c3)c3cc(F)ccc3n12 [Example 87, N-(2-(cyclopropylethynyl)pyridin-4-yl)-N-(2,2-difluoroethyl)-7-fluoro-1-methyl-[1,2,4]triazolo[4,3-a]quinazolin-5-amine]	3.5	7.57
Cc1nnc2nc(N3CCCc4c(C#CC5(C(F)(F)F)CC5)cncc43)c3c(F)c(F)ccc3n12 [Example 88, 6,7-difluoro-1-methyl-5-(5-((1-(trifluoromethyl)cyclopropyl)ethynyl)-3,4-dihydro-1,7-naphthyridin-1(2H)-yl)-[1,2,4]triazolo[4,3-a]quinazoline]	10.6	1.14
Cc1nnc2nc(N(CC(F)F)c3ccnc(C#CC4(C(F)(F)F)CC4)c3F)c3cc(F)ccc3n12 [Example 89]	5.41	4.61
Cc1nnc2nc(N3CCCc4c(C#CC(C)(C)C(F)(F)F)cncc43)c3c(F)c(F)ccc3n12 [Example 90, 6,7-difluoro-1-methyl-5-(5-(4,4,4-trifluoro-3,3-dimethylbut-1-yn-1-yl)-3,4-dihydro-1,7-naphthyridin-1(2H)-yl)-[1,2,4]triazolo[4,3-a]quinazoline]	29.3	1.88
Cc1nnc2nc(N(CC(F)F)c3ccnc(C#CC4(C)CC4)c3)c3c(F)c(F)ccc3n12 [Example 91, N-(2,2-difluoroethyl)-6,7-difluoro-1-methyl-N-(2-((1-methylcyclopropyl)ethynyl)pyridin-4-yl)-[1,2,4]triazolo[4,3-a]quinazolin-5-amine]	3.43	3.83

Results, then the compound that gave them:

IC50 (human DGKα) [nM]	EC50 [1] [nM]	Structure (SMILES)
13.8	5.3	Cc1nnc2nc(N(CC(F)F)c3ccnc(C#CC4(C(F)(F)F)CC4)c3)c3c(F)c(F)ccc3n12 [Example 92, N-(2,2-difluoroethyl)-6,7-difluoro-1-methyl-N-(2-((1-(trifluoromethyl)cyclopropyl)ethynyl)pyridin-4-yl)-[1,2,4]triazolo[4,3-a]quinazolin-5-amine]
8.14	2.63	CC(C)(C#Cc1cc(N(CC(F)F)c2nc3nncn3c3ccc(F)c(F)c23)ccn1)C(F)(F)F [Example 93, N-(2,2-difluoroethyl)-6,7-difluoro-N-(2-(4,4,4-trifluoro-3,3-dimethylbut-1-yn-1-yl)pyridin-4-yl)-[1,2,4]triazolo[4,3-a]quinazolin-5-amine]
4.3	2.33	CC1(C#Cc2cc(N(CC(F)F)c3nc4nncn4c4ccc(F)c(F)c34)ccn2)CC1 [Example 94, N-(2,2-difluoroethyl)-6,7-difluoro-N-(2-((1-methylcyclopropyl)ethynyl)pyridin-4-yl)-[1,2,4]triazolo[4,3-a]quinazolin-5-amine]
7.69	2.77	Fc1ccc2c(c(N(CC(F)F)c3ccnc(C#CC4(C(F)(F)F)CC4)c3)nc3nncn32)c1F [Example 95, N-(2,2-difluoroethyl)-6,7-difluoro-N-(2-((1-(trifluoromethyl)cyclopropyl)ethynyl)pyridin-4-yl)-[1,2,4]triazolo[4,3-a]quinazolin-5-amine]
6.22	5.1	Cc1nnc2nc(N(CC(F)F)c3ccnc(C#CC4(C)CC4)c3)c3cc(F)ccc3n12 [Example 96, N-(2,2-difluoroethyl)-7-fluoro-1-methyl-N-(2-((1-methylcyclopropyl)ethynyl)pyridin-4-yl)-[1,2,4]triazolo[4,3-a]quinazolin-5-amine]
18	3.9	CC(C)(C#Cc1nccc(N(CC(F)F)c2nc3nncn3c3ccc(F)cc23)c1F)C(F)(F)F [Example 97, N-(2,2-difluoroethyl)-7-fluoro-N-(3-fluoro-2-(4,4,4-trifluoro-3,3-dimethylbut-1-yn-1-yl)pyridin-4-yl)-[1,2,4]triazolo[4,3-a]quinazolin-5-amine]
84.7	18.8	COCCN(c1cc(F)cc(C#CC2(C(F)(F)F)CC2)c1)c1nc2nncn2c2cccc(F)c12 [Example 98, 6-fluoro-N-(3-fluoro-5-((1-(trifluoromethyl)cyclopropyl)ethynyl)phenyl)-N-(2-methoxyethyl)-[1,2,4]triazolo[4,3-a]quinazolin-5-amine]
7.4	0.483	CC1(C#Cc2cncc3c2CCCN3c2nc3nncn3c3ccc(F)c(F)c23)CC1 [Example 99, 6,7-difluoro-5-(5-((1-methylcyclopropyl)ethynyl)-3,4-dihydro-1,7-naphthyridin-1(2H)-yl)-[1,2,4]triazolo[4,3-a]quinazoline]
